The values that follow come from patent publication US11554171B2, “Compounds and methods for the targeted degradation of bromodomain-containing proteins” (Arvinas Operations, Inc., priority 2015, dated 2023).

The structures appear in SMILES notation.

For the assay, the system named is c-myc in 22RV-1 cells. Nature of the assay: Human c-myc ELISA assay. The assay is classed as cell-based. As to conditions: Homo sapiens; for Emax: 22Rv1, 18 h, read-out: Degradation of BRD4: Maximum inhibition (%) c-Myc ELISA in 22RV1 cells; for DC50: 22Rv1, read-out: Degradation of BRD4: DC50 (uM) c-Myc ELISA in 22RV1 cells. In a few lines:
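22RV-1 cells treated 18 h with 8-point 1:3 compound dilutions (final top 300 nM or 1 μM, 0.1% DMSO). Cells lysed in RIPA buffer with protease/phosphatase inhibitors, and c-myc protein in cleared lysate quantified by ELISA against a standard curve. DC50 reported for c-myc suppression.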
In general terms: ELISA stands for enzyme-linked immunosorbent assay.

Broadly, the DC50 is the midpoint of the concentration-degradation curve. Consider `Cc1ncsc1-c1ccc(CNC(=O)C2C[C@@H](O)CN2C(=O)[C@@H](NC(=O)c2cn3cc(OCCNC(=O)C[C@@H]4N=C(c5ccc(Cl)cc5)c5c(sc(C)c5C)-n5c(C)nnc54)ccc3n2)C(C)(C)C)cc1` (some centres unmarked) [Example 96], for which the Emax came out at 67.9% and the DC50 was 0.1 to 1 µM.
On the same counts, the results for `Cc1ncsc1-c1ccc(CNC(=O)[C@@H]2C[C@@H](O)CN2C(=O)[C@@H](NC(=O)COc2ccc(O[C@H]3C[C@@H](NC(=O)C[C@@H]4N=C(c5ccc(Cl)cc5)c5c(sc(C)c5C)-n5c(C)nnc54)C3)nc2)C(C)(C)C)cc1` [Example 118] are 94.4% and < 0.01 µM.
`Cc1ncsc1-c1ccc(CNC(=O)[C@@H]2C[C@@H](O)CN2C(=O)[C@@H](NC(=O)COCCCCn2cc(-c3ccc([C@@H](C)NC(=O)C[C@@H]4N=C(c5ccc(Cl)cc5)c5c(sc(C)c5C)-n5c(C)nnc54)cc3)cn2)C(C)(C)C)cc1` [Example 33, (2S,4R)-1-[(2S)-2-{2-[4-(4-{4-[(1R)-1-{2-[(9S)-7-(4-chlorophenyl)-4,5,13-trimethyl-3-thia-1,8,11,12-tetraazatricyclo[8.3.0.0^2,^6]trideca-2(6),4,7,10,12-pentaen-9-yl]acetamido}ethyl]phenyl}-1H-pyrazol-1-yl)butoxy]acetamido}-3,3-dimethylbutanoyl]-4-hydroxy-N-{[4-(4-methyl-1,3-thiazol-5-yl)phenyl]methyl}pyrrolidine-2-carboxamide]: the Emax came to 100% and the DC50 lay within 0.01 to 0.1 µM.
For `Cc1ncsc1-c1ccc([C@H](C)NC(=O)[C@@H]2C[C@@H](O)CN2C(=O)[C@@H](NC(=O)COc2ccc(N3CC[C@H](NC(=O)C[C@@H]4N=C(c5ccc(Cl)cc5)c5c(sc(C)c5C)-n5c(C)nnc54)C3)nc2)C(C)(C)C)cc1` [Example 236], in that order: 88.9% and 0.01 to 0.1 µM.
Take `Cc1ncsc1-c1ccc(CNC(=O)[C@@H]2C[C@@H](O)CN2C(=O)[C@@H](NC(=O)COc2ccccc2C(=O)N2CC[C@H](NC(=O)C[C@@H]3N=C(c4ccc(Cl)cc4)c4c(sc(C)c4C)-n4c(C)nnc43)C2)C(C)(C)C)cc1` [Example 87]: the Emax worked out at 96.4% and the DC50 fell in the range of 0.01 to 0.1 µM.
Take `Cc1ncsc1-c1ccc(CNC(=O)[C@@H]2C[C@@H](O)CN2C(=O)[C@@H](NC(=O)Cc2ccc3cc(CCNC(=O)C[C@@H]4N=C(c5ccc(Cl)cc5)c5c(sc(C)c5C)-n5c(C)nnc54)oc3c2)C(C)(C)C)cc1` [Example 97]: the Emax was determined as 100% and the DC50 is < 0.01 µM.
`Cc1ncsc1-c1ccc([C@H](C)NC(=O)[C@@H]2C[C@@H](O)CN2C(=O)[C@@H](NC(=O)COCCCOC2CN(C(=O)C[C@@H]3N=C(c4ccc(Cl)cc4)c4c(sc(C)c4C)-n4c(C)nnc43)C2)C(C)(C)C)cc1` [Example 182]: the Emax is 100% and the DC50 was < 0.01 µM.
As for `Cc1ncsc1-c1ccc([C@H](C)NC(=O)[C@@H]2C[C@@H](O)CN2C(=O)[C@@H](n2cc(-c3ccnc(O[C@H]4C[C@H](NC(=O)C[C@@H]5N=C(c6ccc(Cl)cc6)c6c(sc(C)c6C)-n6c(C)nnc65)C4)c3)cn2)C(C)(C)C)cc1` [Example 234], the Emax was 80.6% and the DC50 fell in the range of 0.01 to 0.1 µM.
In the case of `Cc1ncsc1-c1ccc(CNC(=O)[C@@H]2C[C@@H](O)CN2C(=O)[C@@H](NC(=O)COCCOCCOCCCCNC(=O)C[C@@H]2N=C(c3ccc(Cl)cc3)c3c(sc(C)c3C)-n3c(C)nnc32)C(C)(C)C)cc1` [Example 51, (2S,4R)-1-[(2S)-2-(2-{2-[2-(4-{2-[(9S)-7-(4-chlorophenyl)-4,5,13-trimethyl-3-thia-1,8,11,12-tetraazatricyclo[8.3.0.0^2,^6]trideca-2(6),4,7,10,12-pentaen-9-yl]acetamido}butoxy)ethoxy]ethoxy}acetamido)-3,3-dimethylbutanoyl]-4-hydroxy-N-{[4-(4-methyl-1,3-thiazol-5-yl)phenyl]methyl}pyrrolidine-2-carboxamide], the Emax was 97% and the DC50 was < 0.01 µM.
In the case of `Cc1ncsc1-c1ccc([C@H](C)NC(=O)[C@@H]2C[C@@H](O)CN2C(=O)[C@@H](NC(=O)Cc2ccc(O[C@H]3C[C@@H](NC(=O)C[C@@H]4N=C(c5ccc(Cl)cc5)c5c(sc(C)c5C)-n5c(C)nnc54)C3)cc2)C(C)(C)C)cc1` [Example 185, (2S,4R)-1-[(2S)-3,3-dimethyl-2-(2-{4-[(1s,35)-3-{2-[(9S)-7-(4-chlorophenyl)-4,5,13-trimethyl-3-thia-1,8,11,12-tetraatetraazatricyclo[8.3.0.0^2,^6]trideca-2(6),4,7,10,12-pentaen-9-yl]acetamido}cyclobutoxy]phenyl}acetamido)butanoyl]-4-hydroxy-N-[(1S)-1-[4-(4-methyl-1,3-thiazol-5-yl)phenyl]ethyl]pyrrolidine-2-carboxamide], the Emax amounted to 99.5% and the 50% degradation concentration (DC50) was < 0.01 µM.
Turning to `Cc1ncsc1-c1ccc(CNC(=O)[C@@H]2C[C@@H](O)CN2C(=O)[C@@H](NC(=O)COCCCOCCCOc2ccc(C3(NC(=O)C[C@@H]4N=C(c5ccc(Cl)cc5)c5c(sc(C)c5C)-n5c(C)nnc54)CC3)cc2)C(C)(C)C)cc1` [Example 27, (2S,4R)-1-[(2S)-2-[2-(3-{3-[4-(1-{2-[(9S)-7-(4-chlorophenyl)-4,5,13-trimethyl-3-thia-1,8,11,12-tetraazatricyclo[8.3.0.0^2,^6]trideca-2(6),4,7,10,12-pentaen-9-yl]acetamido}cyclopropyl)phenoxy]propoxy}propoxy)acetamido]-3,3-dimethylbutanoyl]-4-hydroxy-N-{[4-(4-methyl-1,3-thiazol-5-yl)phenyl]methyl}pyrrolidine-2-carboxamide], the Emax was 100% and the DC50 fell in the range of 0.01 to 0.1 µM.
As for `Cc1ncsc1-c1ccc([C@H](C)NC(=O)[C@@H]2C[C@@H](O)CN2C(=O)[C@@H](NC(=O)COCCCOCCCCOc2ccc3c(c2)c2c(C(N)=O)cc(-c4c(C)noc4C)cc2n3Cc2ccccc2)C(C)(C)C)cc1` [Example 166], the Emax came out at 97% and the DC50 was < 0.01 µM.
Consider `Cc1ncsc1-c1ccc([C@H](C)NC(=O)[C@@H]2C[C@@H](O)CN2C(=O)[C@@H](NC(=O)CN2CCC(N3CCCN(C(=O)C[C@@H]4N=C(c5ccc(Cl)cc5)c5c(sc(C)c5C)-n5c(C)nnc54)CC3)CC2)C(C)(C)C)cc1` [Example 333], for which the Emax came out at 88% and the DC50 was in the range of 0.01 to 0.1 µM.
As for `Cc1ncsc1-c1ccc([C@H](C)NC(=O)[C@@H]2C[C@@H](O)CN2C(=O)[C@@H](NC(=O)COC/C=C\COCCNC(=O)C[C@@H]2N=C(c3ccc(Cl)cc3)c3c(sc(C)c3C)-n3c(C)nnc32)C(C)(C)C)cc1` [Example 146, (2S,4R)-1-[(2S)-2-(2-{[(2Z)-4-(2-{2-[(9S)-7-(4-chlorophenyl)-4,5,13-trimethyl-3-thia-1,8,11,12-tetraazatricyclo[8.3.0.0^2,^6]trideca-2(6),4,7,10,12-pentaen-9-yl]acetamido}ethoxy)but-2-en-1-yl]oxy}acetamido)-3,3-dimethylbutanoyl]-4-hydroxy-N-[(1S)-1-[4-(4-methyl-1,3-thiazol-5-yl)phenyl]ethyl]pyrrolidine-2-carboxamide], the Emax came out at 100% and the DC50 was < 0.01 µM.
For `Cc1ncsc1-c1ccc(CNC(=O)[C@@H]2C[C@@H](O)CN2C(=O)[C@@H](NC(=O)COCCOc2cc(-c3ccc([C@@H](C)NC(=O)C[C@@H]4N=C(c5ccc(Cl)cc5)c5c(sc(C)c5C)-n5c(C)nnc54)cc3)ccn2)C(C)(C)C)cc1` [Example 36, (2S,4R)-1-[(2S)-2-(2-{2-[(4-{4-[(1R)-1-{2-[(9S)-7-(4-chlorophenyl)-4,5,13-trimethyl-3-thia-1,8,11,12-tetraazatricyclo[8.3.0.0^2,^6]trideca-2(6),4,7,10,12-pentaen-9-yl]acetamido}ethyl]phenyl}pyridin-2-yl)oxy]ethoxy}acetamido)-3,3-dimethylbutanoyl]-4-hydroxy-N-{[4-(4-methyl-1,3-thiazol-5-yl)phenyl]methyl}pyrrolidine-2-carboxamide], in that order: 97% and 0.01 to 0.1 µM.
`Cc1ncsc1-c1ccc([C@H](C)NC(=O)[C@@H]2C[C@@H](O)CN2C(=O)[C@@H](NC(=O)CN2CCN(C3CC4(C3)CN(C(=O)C[C@@H]3N=C(c5ccc(Cl)cc5)c5c(sc(C)c5C)-n5c(C)nnc53)C4)C[C@@H]2C)C(C)(C)C)cc1` [Example 358]: the Emax is > 90% and the 50% degradation concentration (DC50) is 0.01 to 0.1 µM.
As for `Cc1ncsc1-c1ccc([C@H](C)NC(=O)[C@@H]2C[C@@H](O)CN2C(=O)[C@@H](NC(=O)CN2CCN(C3CC4(C3)CN(C(=O)C[C@@H]3N=C(c5ccc(Cl)cc5)c5c(sc(C)c5C)-n5c(C)nnc53)C4)[C@@H](C)C2)C(C)(C)C)cc1` [Example 354, (2S,4R)-1-[(2S)-2-{2-[(3S)-4-(2-{2-[(9S)-7-(4-chlorophenyl)-4,5,13-trimethyl-3-thia-1,8,11,12-tetraazatricyclo[8.3.0.0^2,^6]trideca-2(6),4,7,10,12-pentaen-9-yl]acetyl}-2-azaspiro[3.3]heptan-6-yl)-3-methyl-piperazin-1-yl]acetamido}-3,3-dimethylbutanoyl]-4-hydroxy-N-[(1S)-1-[4-(4-methyl-1,3-thiazol-5-yl)phenyl]ethyl]pyrrolidine-2-carboxamide], the Emax is 100% and the DC50 lay within 0.01 to 0.1 µM.
With `Cc1ncsc1-c1ccc([C@H](C)NC(=O)[C@@H]2C[C@@H](O)CN2C(=O)[C@@H](NC(=O)/C=C/c2cccc(OCCNC(=O)C[C@@H]3N=C(c4ccc(Cl)cc4)c4c(sc(C)c4C)-n4c(C)nnc43)c2)C(C)(C)C)cc1` [Example 122], the Emax was determined as 100% and the DC50 was < 0.01 µM.
As for `Cc1ncsc1-c1ccc(CNC(=O)[C@@H]2C[C@@H](O)CN2C(=O)[C@@H](NC(=O)COCCc2cccc(CNC(=O)C[C@@H]3N=C(c4ccc(Cl)cc4)c4c(sc(C)c4C)-n4c(C)nnc43)c2)C(C)(C)C)cc1` [Example 69], the Emax was 93.4% and the DC50 is 0.01 to 0.1 µM.
